The target of the experiment is T1, ΔF508-CFTR (Homo sapiens, UniProt P13569, DEL508-508).
T1 construct: host or cells: CFBE41o-, doxycycline-inducible
Kind of experiment: CFTR cell surface levels using HRP-tagged ΔF508-CFTR expressing CFBE cells, in the presence of a co-corrector. The settings on record: HRP-tagged ΔF508-CFTR expressing CFBE cells, in the presence of 3 μM co-corrector; for EC50: read-out: EC50. It counts as cell-based. From the text: Measuring CFTR Cell Surface Levels Using HRP-Tagged AF508-CFTR Expressing CFBE Cells
The HRP-tagged AF508-CFTR cell assay measures the expression of CFTR-ΔF508 at the plasma membrane. CFTR-ΔF508 has a folding defect leading to absence of protein at the plasma membrane. This assay is used to evaluate the capacity of compounds to increase the expression of CFTR-ΔF508 at the plasma membrane. The CFTR-ΔF508 is tagged with HRP (horse radish peroxidase enzyme) within the ECL4 (Extracellular loop 4) of CFTR (Phuan, P.-W. et al. Synergy-based small-molecule screen using a human lung epithelial cell line yields AF508-CFTR correctors that augment VX-809 maximal efficacy. Mol. Pharmacol. 86, 42-51 (2014)). When HRP-tagged AF508-CFTR is present at the plasma membrane, the HRP enzyme activity can be measured. The amount of CFTR-ΔF508 that can be rescued to the plasma membrane is correlated with the amount of functional enzyme that can be measured.
There are several ways to measure the capacity of compounds to rescue CFTR-ΔF508 to the plasma membrane; either compounds are evaluated on their own and the impact on plasma membrane levels is measured or compounds are evaluated in combination with a co-corrector, i.e. a compound that rescues CFTR-ΔF508 to the plasma membrane but rescue can be enhanced by addition of compounds due to a complementary mode of action.
Activity of Compounds in Combination with Co-Corrector:
For this purpose doxycycline-inducible AF508-CFTR-HRP expressing CFBE4lo-cells (obtained from Gergely Lukacs, McGill University) were maintained in MEM (Minimum Essential Medium, Gibco; 31095) supplemented with 10% fetal bovine serum (Hyclone; SV30160.03) under puromycin (3 μg/mL) and G418 selection (0.2 mg/mL). For compound testing, cells were seeded at 4000 cells/well in white 384-well plates (Greiner; 781080) in 50 μL of medium containing 0.5 μg/mL doxycycline and incubated for 68 hours at 37° C., 5% CO2. On day four, 10 μL of test compounds diluted in PBS (phosphate buffered saline) were added to the plates at a final DMSO concentration of 0.1%. In order to measure compound synergy with a co-corrector, 3 μM co-corrector (3-[(2R,4R)-4-({[1-(2,2-difluoro-1,3-benzodioxol-5-yl)cyclopropyl]carbonyl}amino)-7-methoxy-3,4-dihydro-2H-chromen-2-yl]benzoic acid) was added along with test compounds. All compound plates contained negative controls (DMSO) and positive controls (3 μM co-corrector). Cell plates were incubated at 33° C., 5% CO2 for 20 hours. On day five, the cells were washed five times with phosphate-buffered saline, and HRP activity was assayed by the addition of 50 μL/well of HRP substrate (SuperSignal™ West Pico Chemiluminescent Substrate, Thermo Scientific; 34080). After incubation for 15 minutes in the dark, the chemiluminescence was measured using a plate reader (EnVision®, Perkin Elmer). Raw data were normalized to percentage activity values using the equation: 100×(Sample−Negative control)/(Positive control−Negative Control).

T1 sequence (P13569 with tags, fused parts or gaps DEL508-508): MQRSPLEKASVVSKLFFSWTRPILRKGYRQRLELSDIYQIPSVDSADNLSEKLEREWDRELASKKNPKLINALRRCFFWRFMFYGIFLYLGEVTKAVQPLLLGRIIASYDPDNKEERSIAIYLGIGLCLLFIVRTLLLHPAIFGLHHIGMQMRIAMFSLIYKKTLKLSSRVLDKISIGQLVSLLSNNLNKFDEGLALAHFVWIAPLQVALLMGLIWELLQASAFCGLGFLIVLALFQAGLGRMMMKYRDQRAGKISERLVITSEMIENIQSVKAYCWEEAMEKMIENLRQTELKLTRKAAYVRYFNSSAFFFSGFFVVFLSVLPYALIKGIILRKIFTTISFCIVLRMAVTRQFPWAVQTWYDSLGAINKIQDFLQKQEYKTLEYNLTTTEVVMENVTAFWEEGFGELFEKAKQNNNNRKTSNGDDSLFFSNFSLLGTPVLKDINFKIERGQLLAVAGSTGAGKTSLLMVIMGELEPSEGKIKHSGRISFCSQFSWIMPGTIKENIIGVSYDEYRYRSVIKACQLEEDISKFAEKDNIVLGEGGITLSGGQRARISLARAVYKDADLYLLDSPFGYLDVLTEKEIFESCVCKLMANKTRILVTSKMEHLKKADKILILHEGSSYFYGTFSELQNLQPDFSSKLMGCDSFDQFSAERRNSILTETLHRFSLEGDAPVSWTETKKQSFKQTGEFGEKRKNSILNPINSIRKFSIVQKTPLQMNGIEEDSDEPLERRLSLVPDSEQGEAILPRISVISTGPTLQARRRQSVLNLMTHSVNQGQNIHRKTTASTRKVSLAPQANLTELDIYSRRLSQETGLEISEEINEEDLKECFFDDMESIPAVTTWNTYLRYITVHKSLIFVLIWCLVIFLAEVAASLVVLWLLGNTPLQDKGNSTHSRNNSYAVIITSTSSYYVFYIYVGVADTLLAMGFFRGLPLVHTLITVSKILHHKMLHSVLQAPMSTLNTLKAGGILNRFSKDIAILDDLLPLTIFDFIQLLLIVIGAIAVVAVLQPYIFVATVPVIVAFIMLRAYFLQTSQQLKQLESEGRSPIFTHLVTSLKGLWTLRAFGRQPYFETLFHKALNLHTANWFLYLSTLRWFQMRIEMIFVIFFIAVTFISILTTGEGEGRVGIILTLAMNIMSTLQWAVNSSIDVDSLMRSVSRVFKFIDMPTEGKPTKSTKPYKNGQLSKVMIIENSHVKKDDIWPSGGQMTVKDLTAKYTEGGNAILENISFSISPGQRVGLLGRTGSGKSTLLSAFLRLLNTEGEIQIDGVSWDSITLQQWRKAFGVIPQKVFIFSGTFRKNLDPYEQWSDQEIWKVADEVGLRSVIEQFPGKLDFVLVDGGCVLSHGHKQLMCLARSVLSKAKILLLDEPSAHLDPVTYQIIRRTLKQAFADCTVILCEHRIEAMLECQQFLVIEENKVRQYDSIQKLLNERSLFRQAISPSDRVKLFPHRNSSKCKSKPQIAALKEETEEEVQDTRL

As a reminder, the EC50 is the concentration at which the effect is half-maximal. Take `O=C(O)c1cc(N2CCC(CN3CCOCC3)CC2)c2c(C3CCC3)nn(C3CCCCC3)c2n1` [compound 806, 3-cyclobutyl-1-cyclohexyl-4-{4-[(morpholin-4-yl)methyl]piperidin-1-yl}-1H-pyrazolo[3,4-b]pyridine-6-carboxylic acid]: the “% Activation” value was found to be 435.5% and the EC50 came out at 225 nM.
Turning to `O=C(O)c1cc(OC2CCCC2)c2c(C3CCC3)nn(-c3ccccc3)c2n1` [compound 597, 3-cyclobutyl-4-(cyclopentyloxy)-1-phenyl-1H-pyrazolo[3,4-b]pyridine-6-carboxylic acid], the “% Activation” value is reported as 342.5% and the EC50 is 230 nM.
Taken in the same sequence, the figures for `CC(C)N1CCCN(c2cc(C(=O)O)nc3c2c(C2CCC2)nn3-c2ccccc2)CC1` [compound 691, 3-cyclobutyl-1-phenyl-4-[4-(propan-2-yl)-1,4-diazepan-1-yl]-1H-pyrazolo[3,4-b]pyridine-6-carboxylic acid] were 280.7% and 5000 nM.
Turning to `Cc1nn(C2CCCCC2)c2nc(C(=O)O)cc(-c3ccc(N4CCOCC4)cc3)c12` [compound 17, 1-cyclohexyl-3-methyl-4-[4-(morpholin-4-yl)phenyl]-1H-pyrazolo[3,4-b]pyridine-6-carboxylic acid], the “% Activation” value is reported as 272.5% and the EC50 came out at 1140 nM.
In the case of `CN(C1CCN(C2CN(c3cc(C(=O)O)nc4c3c(C3CCC3)nn4-c3ccccc3)C2)CC1)C1COC1` [compound 724, 3-cyclobutyl-4-(3-{4-[methyl(oxetan-3-yl)amino]piperidin-1-yl}azetidin-1-yl)-1-phenyl-1H-pyrazolo[3,4-b]pyridine-6-carboxylic acid], the “% Activation” value is recorded as 208.5% and the EC50 stood at 1670 nM.
For `O=C(O)c1cc(N2CCC[C@@H](N3CCCC3=O)C2)c2c(C3CCC3)nn(-c3ccccc3)c2n1` [compound 697, 3-cyclobutyl-4-[(3R)-3-(2-oxopyrrolidin-1-yl)piperidin-1-yl]-1-phenyl-1H-pyrazolo[3,4-b]pyridine-6-carboxylic acid], in that order: 217.3% and 1270 nM.
As for `CC(C)COC(=O)N1CCN(c2cc(C(=O)O)nc3c2c(C2CCC2)nn3-c2ccccc2)CC1` [compound 701, 3-cyclobutyl-4-{4-[(2-methylpropoxy)carbonyl]piperazin-1-yl}-1-phenyl-1H-pyrazolo[3,4-b]pyridine-6-carboxylic acid], the “% Activation” value is listed as 498.5% and the EC50 is 36.1 nM.
With `CC(C)c1nn(-c2ccc(F)cc2)c2nc(C(=O)O)cc(OCC3CCCO3)c12` (centres unmarked) [compound 609, 1-(4-fluorophenyl)-4-[(oxolan-2-yl)methoxy]-3-(propan-2-yl)-1H-pyrazolo[3,4-b]pyridine-6-carboxylic acid], the “% Activation” value is reported as 336.4% and the EC50 was determined as 1040 nM.
On to `COc1cc(C(=O)O)nc2c1c(C1CCC1)nn2-c1ccccc1` [compound 584, 3-cyclobutyl-4-methoxy-1-phenyl-1H-pyrazolo[3,4-b]pyridine-6-carboxylic acid], for which the “% Activation” value is recorded as 202.2% and the EC50 was found to be 2880 nM.
Consider `CCCN1CCCN(c2cc(C(=O)O)nc3c2c(C2CCC2)nn3-c2ccccc2)CC1` [compound 712, 3-cyclobutyl-1-phenyl-4-(4-propyl-1,4-diazepan-1-yl)-1H-pyrazolo[3,4-b]pyridine-6-carboxylic acid], for which the “% Activation” value came to 242.9% and the EC50 turned out to be 608 nM.
As for `CCN(CC)CCCC1CCN(c2cc(C(=O)O)nc3c2c(C2CCC2)nn3-c2ccccc2)CC1` [compound 731, 3-cyclobutyl-4-{4-[3-(diethylamino)propyl]piperidin-1-yl}-1-phenyl-1H-pyrazolo[3,4-b]pyridine-6-carboxylic acid], the “% Activation” value came to 399.5% and the EC50 came to 94.5 nM.
For `O=C(O)c1cc(N2CCC(CN3CCCC3)CC2)c2c(C3CCC3)nn(-c3ccc(F)cc3)c2n1` [compound 888, 3-cyclobutyl-1-(4-fluorophenyl)-4-{4-[(pyrrolidin-1-yl)methyl]piperidin-1-yl}-1H-pyrazolo[3,4-b]pyridine-6-carboxylic acid], in that order: 430% and 333 nM.
Regarding `CN(C)CCCN1CCN(c2cc(C(=O)O)nc3c2c(C2CCC2)nn3-c2ccccc2)CC1` [compound 728, 3-cyclobutyl-4-{4-[3-(dimethylamino)propyl]piperazin-1-yl}-1-phenyl-1H-pyrazolo[3,4-b]pyridine-6-carboxylic acid], the “% Activation” value is given as 221.6% and the EC50 worked out at 1670 nM.
`Cc1nn(-c2ccccc2)c2nc(C(=O)O)cc(-c3ccc(N4CCOCC4)nc3)c12` [compound 50, 3-methyl-4-[6-(morpholin-4-yl)pyridin-3-yl]-1-phenyl-1H-pyrazolo[3,4-b]pyridine-6-carboxylic acid]: the “% Activation” value is recorded as 313.2% and the EC50 came out at 2120 nM.
Consider `CC(C)c1nn(-c2ccc(F)cc2)c2nc(C(=O)O)cc(N3CCN(C4CCN(C5CC5)CC4)CC3)c12` [compound 743, 4-[4-(1-cyclopropylpiperidin-4-yl)piperazin-1-yl]-1-(4-fluorophenyl)-3-(propan-2-yl)-1H-pyrazolo[3,4-b]pyridine-6-carboxylic acid], for which the “% Activation” value was 330.5% and the EC50 was found to be 1240 nM.
Consider `CN1CCCN(C(=O)CCN2CCN(c3cc(C(=O)O)nc4c3c(C3CCC3)nn4-c3ccccc3)CC2)CC1` [compound 717, 3-cyclobutyl-4-{4-[3-(4-methyl-1,4-diazepan-1-yl)-3-oxopropyl]piperazin-1-yl}-1-phenyl-1H-pyrazolo[3,4-b]pyridine-6-carboxylic acid], for which the “% Activation” value came out at 124.6% and the EC50 was determined as 5000 nM.
As to `O=C(O)c1cc(N2CCCN(C3CCCC3)CC2)c2c(C3CCC3)nn(-c3ccccc3)c2n1` [compound 705, 3-cyclobutyl-4-(4-cyclopentyl-1,4-diazepan-1-yl)-1-phenyl-1H-pyrazolo[3,4-b]pyridine-6-carboxylic acid], the “% Activation” value is 249.8% and the EC50 came to 1670 nM.
For `CC(C)c1nn(-c2ccc(F)cc2)c2nc(C(=O)O)cc(N3CCC(N(C)C4COC4)CC3)c12` [compound 751, 1-(4-fluorophenyl)-4-{4-[methyl(oxetan-3-yl)amino]piperidin-1-yl}-3-(propan-2-yl)-1H-pyrazolo[3,4-b]pyridine-6-carboxylic acid], in that order: 400.2% and 1590 nM.
As to `CCN(C1CCN(c2cc(C(=O)O)nc3c2c(C2CCC2)nn3-c2ccccc2)CC1)C1COC1` [compound 734, 3-cyclobutyl-4-{4-[ethyl(oxetan-3-yl)amino]piperidin-1-yl}-1-phenyl-1H-pyrazolo[3,4-b]pyridine-6-carboxylic acid], the “% Activation” value was found to be 415% and the half-maximal effective concentration (EC50) was 244 nM.
Taken in the same sequence, the figures for `O=C(O)c1cc(OCC2CC(F)(F)C2)c2c(C3CCC3)nn(-c3ccccc3)c2n1` [compound 600, 3-cyclobutyl-4-[(3,3-difluorocyclobutyl)methoxy]-1-phenyl-1H-pyrazolo[3,4-b]pyridine-6-carboxylic acid] were 334.3% and 383 nM.
`CC(C)c1nn(-c2ccc(F)cc2)c2nc(C(=O)O)cc(N3CCC(C4CCN(C5COC5)CC4)CC3)c12` [compound 752, 1-(4-fluorophenyl)-4-[1′-(oxetan-3-yl)[4,4′-bipiperidin]-1-yl]-3-(propan-2-yl)-1H-pyrazolo[3,4-b]pyridine-6-carboxylic acid]: the “% Activation” value was found to be 530.9% and the EC50 is 104 nM.
On to `O=C(O)c1cc(N2CCC(C3CCN(C4COC4)CC3)CC2)c2c(C3CCC3)nn(-c3ccccc3)c2n1` [compound 736, 3-cyclobutyl-4-[1′-(oxetan-3-yl)[4,4′-bipiperidin]-1-yl]-1-phenyl-1H-pyrazolo[3,4-b]pyridine-6-carboxylic acid], for which the “% Activation” value was 511.6% and the EC50 amounted to 42.2 nM.

Values taken from patent US9796711B2, “Substituted pyrazolo[3,4-b]pyridin-6-carboxylic acids and method of use” (AbbVie S.àr.l., priority 2015, dated 2017).
